Laboratory results from patent US20240383904A1, “HETEROCYCLIC COMPOUNDS” (Hoffmann-La Roche Inc., priority 2021, published 2024).

Biological target: T1, MAGL (Homo sapiens, UniProt Q99685)
T1 sequence (Q99685 1-303): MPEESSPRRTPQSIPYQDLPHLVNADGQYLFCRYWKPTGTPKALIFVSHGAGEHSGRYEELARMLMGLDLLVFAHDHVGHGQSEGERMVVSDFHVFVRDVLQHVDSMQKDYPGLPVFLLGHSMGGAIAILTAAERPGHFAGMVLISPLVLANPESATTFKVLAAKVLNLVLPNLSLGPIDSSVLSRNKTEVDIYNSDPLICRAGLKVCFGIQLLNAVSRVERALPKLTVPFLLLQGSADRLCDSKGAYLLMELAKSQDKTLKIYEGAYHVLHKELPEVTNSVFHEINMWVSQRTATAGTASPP
Test: 2-AG assay: MAGL inhibitory activity by hydrolysis of 2-arachidonoylglycerol to arachidonic acid, followed by mass spectrometry
Format: biochemical
Conditions: 15 min preincubation, 30 min reaction at RT, 8 μM 2-arachidonoylglycerol

Compound	IC50 [nM]
O=C1NC2(CO1)CN(C(=O)N1CC3(CCN(Cc4ccc(S(=O)(=O)C(F)(F)F)cc4)CC3)C1)C2 [Example 84, 2-[7-(4-triflylbenzyl)-2,7-diazaspiro[3.5]nonane-2-carbonyl]-7-oxa-2,5-diazaspiro[3.4]octan-6-one]	0.99
CS(=O)(=O)c1ccc(C2CC3(C2)CN(C(=O)N2CC4(COC(=O)N4)C2)C3)cc1 [Example 124, 2-[6-(4-mesylphenyl)-2-azaspiro[3.3]heptane-2-carbonyl]-7-oxa-2,5-diazaspiro[3.4]octan-6-one]	4.54
O=C1CCC2(CN(C(=O)N3CC4(CN(Cc5ccc(C(F)(F)F)cc5F)C4)C3)C2)N1 [Example 361, 2-[6-[2-fluoro-4-(trifluoromethyl)benzyl]-2,6-diazaspiro[3.3]heptane-2-carbonyl]-2,5-diazaspiro[3.4]octan-6-one]	5.8
O=C1NC2(CO1)CN(C(=O)N1CC3(CN(Cc4ncc(F)cc4F)C3)C1)C2 [Example 162, 2-[6-[(3,5-difluoro-2-pyridyl)methyl]-2,6-diazaspiro[3.3]heptane-2-carbonyl]-7-oxa-2,5-diazaspiro[3.4]octan-6-one]	15.1
O=C1NC2(CO1)CN(C(=O)N1CC3(CCC(Cc4ccc(Cl)cn4)CC3)C1)C2 [Example 97, 2-[7-[(5-chloro-2-pyridyl)methyl]-2-azaspiro[3.5]nonane-2-carbonyl]-7-oxa-2,5-diazaspiro[3.4]octan-6-one]	0.15
O=C1NC2(CCO1)CN(C(=O)N1CC3(CCC(OCC4(C(F)(F)F)CC4)CC3)C1)C2 [Example 130, 2-[7-[[1-(trifluoromethyl)cyclopro-pyl]methoxy]-2-azaspiro[3.5]nonane-2-carbonyl]-7-oxa-2,5-diazaspiro[3.5]nonan-6-one]	186
O=C1COCC2(CN(C(=O)N3CC4(CC[C@H](Cc5cccc(S(=O)(=O)C(F)(F)F)c5)C4)C3)C2)N1 [Example 237, 2-[(6R)-6-[[3-(trifluoromethylsulfonyl)phenyl]methyl]-2-azaspiro[3.4]octane-2-carbonyl]-8-oxa-2,5-diazaspiro[3.5]nonan-6-one]	3.15
O=C1NC2(CO1)CN(C(=O)N1CC3(CCC(Oc4cnc(C(F)(F)F)cn4)C3)C1)C2 (centres unmarked) [Example 71, 2-[6-[5-(trifluoromethyl)pyrazin-2-yl]oxy-2-azaspiro[3.4]octane-2-carbonyl]-7-oxa-2,5-diazaspiro[3.4]octan-6-one]	3.29
Cc1cc(C(F)F)n(CC2CC3(C2)CN(C(=O)N2CC4(COCC(=O)N4)C2)C3)n1 [Example 364, 2-[6-[[5-(difluoromethyl)-3-methyl-pyrazol-1-yl]methyl]-2-azaspiro[3.3]heptane-2-carbonyl]-8-oxa-2,5-diazaspiro[3.5]nonan-6-one]	27.2
O=C1CCC2(CN(C(=O)N3CC4(CN(Cc5ccc(S(=O)(=O)C(F)(F)F)cc5F)C4)C3)C2)N1 [Example 258, 2-[6-[[2-fluoro-4-(trifluoromethylsulfonyl)phenyl]methyl]-2,6-diazaspiro[3.4]heptane-2-carbonyl]-2,5-diazaspiro[3.4]octan-6-one]	18.6
O=C1COCC2(CN(C(=O)N3CC4(CC(Cc5cnn(C(F)(F)F)c5)C4)C3)C2)N1 [Example 365, 2-[6-[[1-(trifluoromethyl)pyrazol-4-yl]methyl]-2-azaspiro[3.3]heptane-2-carbonyl]-8-oxa-2,5-diazaspiro[3.5]nonan-6-one]	41
O=C1COCC2(CN(C(=O)N3CC4(CC(Cc5ncc(F)cc5Cl)C4)C3)C2)N1 [Example 176, 2-[6-[(3-chloro-5-fluoro-2-pyridyl)methyl]-2-azaspiro[3.3]heptane-2-carbonyl]-8-oxa-2,5-diazaspiro[3.5]nonan-6-one]	3
Cn1nc(CC2CC3(C2)CN(C(=O)N2CC4(CCC(=O)N4)C2)C3)cc1C(F)(F)F [Example 166, 2-[6-[[1-methyl-5-(trifluoromethyl)pyrazol-3-yl]methyl]-2-azaspiro[3.3]heptane-2-carbonyl]-2,5-diazaspiro[3.4]octan-6-one]	1.31
CN(c1cnc(C(F)(F)F)cn1)C1CCC2(CC1)CN(C(=O)N1CC3(COC(=O)N3)C1)C2 [Example 96, 2-[7-[methyl-[5-(trifluoromethyl)pyrazin-2-yl]amino]-2-azaspiro[3.5]nonane-2-carbonyl]-7-oxa-2,5-diazaspiro[3.4]octan-6-one]	1.88
O=C1CCC2(CN(C(=O)N3CC4(CCN(Cc5ccc(C(F)(F)F)cc5F)CC4)C3)C2)N1 [Example 132]	0.79
O=C1CCC2(CN(C(=O)N3CC4(CCN(Cc5ccc(C(F)(F)F)cn5)C4)C3)C2)N1 [Example 150, 2-[7-[[5-(trifluoromethyl)-2-pyridyl]methyl]-2,7-diazaspiro[3.4]octane-2-carbonyl]-2,5-diazaspiro[3.4]octan-6-one]	140

Compound	IC50 [nM]
O=C1NC2(CO1)CN(C(=O)N1CC3(CCC(Oc4ccc(C(F)(F)F)nn4)CC3)C1)C2 [Example 47, 2-[7-[6-(trifluoromethyl)pyrida-zin-3-y1]oxy-2-azaspiro[3.5]nonane-2-carbonyl]-7-oxa-2,5-diazaspiro[3.4]octan-6-one]	2.94
O=C1COCC2(CN(C(=O)N3CC4(CC(Cc5ccc(C(F)(F)F)cn5)C4)C3)C2)N1 [Example 170, 2-[6-[[5-(trifluoromethyl)-2-pyridyl]methyl]-2-azaspiro[3.3]heptane-2-carbonyl]-8-oxa-2,5-diazaspiro[3.5]nonan-6-one]	7.82
CS(=O)(=O)c1cccc(CN2CCC3(CC2)CN(C(=O)N2CC4(CCC(=O)N4)C2)C3)c1 [Example 163, 2-[7-(3-mesylbenzyl)-2,7-diazaspiro[3.5]nonane-2-carbonyl]-2,5-diazaspiro[3.4]octan-6-one]	2.78
O=C1NC2(CO1)CN(C(=O)N1CC3(CC(Cc4cccc(S(=O)(=O)C(F)(F)F)c4)C3)C1)C2 [Example 21, 2-[6-(3-triflylbenzyl)-2-azaspiro[3.3]heptane-2-carbonyl]-7-oxa-2,5-diazaspiro[3.4]octan-6-one]	0.01
O=C1CCC2(CN(C(=O)N3CC4(CC(Oc5ccc(F)cn5)C4)C3)C2)N1 [Example 309, 2-[6-[(5-fluoro-2-pyridyl)oxy]-2-azaspiro[3.3]heptane-2-carbonyl]-2,5-diazaspiro[3.4]octan-6-one]	94.9
CS(=O)(=O)c1ccc(CC2CC3(C2)CN(C(=O)N2CC4(COC(=O)N4)C2)C3)cc1 [Example 13, 2-[6-(4-mesylbenzyl)-2-azaspiro[3.3]heptane-2-carbonyl]-7-oxa-2,5-diazaspiro[3.4]octan-6-one]	0.93
O=C1CCC2(CN(C(=O)N3CC4(CC(Oc5ncc(F)cc5Cl)C4)C3)C2)N1 [Example 313, 2-[6-[(3-chloro-5-fluoro-2-pyridyl)oxy]-2-azaspiro[3.3]heptane-2-carbonyl]-2,5-diazaspiro[3.4]octan-6-one]	27.8
CS(=O)(=O)c1cc(F)ccc1CC1CC2(C1)CN(C(=O)N1CC3(CCC(=O)N3)C1)C2 [Example 41, 2-[6-(4-fluoro-2-mesyl-benzyl)-2-azaspiro[3.3]heptane-2-carbonyl]-2,5-diazaspiro[3.4]octan-6-one]	5.52
O=C1COCC2(CN(C(=O)N3CC4(CC[C@@H](Cc5cccc(S(=O)(=O)C(F)(F)F)c5)C4)C3)C2)N1 [Example 236, 2-[(6S)-6-[[3-(trifluoromethylsulfonyl)phenyl]methyl]-2-azaspiro[3.4]octane-2-carobnyl]-8-oxa-2,5-diazaspiro[3.5]nonan-6-one]	2.16
O=C1NC2(CO1)CN(C(=O)N1CC3(CC(Cc4ccc(F)cn4)C3)C1)C2 [Example 31, 2-[6-[(5-fluoro-2-pyridyl)methyl]-2-azaspiro[3.3]heptane-2-carbonyl]-7-oxa-2,5-diazaspiro[3.4]octan-6-one]	0.61
O=C1CCC2(CN(C(=O)N3CC4(CC(Cc5ccc(S(=O)(=O)C6CC6)cc5)C4)C3)C2)N1 [Example 215, 2-[6-[(4-cyclopropylsulfonylphe-nyl)methyl]-2-azaspiro[3.3]heptane-2-carbonyl]-2,5-diazaspiro[3.4]octan-6-one]	3.2
O=C1CCC2(CN(C(=O)N3CC4(CC(Oc5ccc(Cl)cn5)C4)C3)C2)N1 [Example 303, 2-[6-[(5-chloro-2-pyridyl)oxy]-2-azaspiro[3.3]heptane-2-carbonyl]-2,5-diazaspiro[3.4]octan-6-one]	35.7
O=C1NC2(CCO1)CN(C(=O)N1CC3(CCN(S(=O)(=O)c4ccc(C(F)(F)F)cc4F)CC3)C1)C2 [Example 144, 2-[7-[2-fluoro-4-(trifluoromethyl)phenyl]sulfonyl-2,7-diazaspiro[3.5]nonane-2-carbonyl]-7-oxa-2,5-diazaspiro[3.5]nonan-6-one]	2120
O=C1CCC2(CN(C(=O)N3CC4(C3)CN(S(=O)(=O)c3cccc(OC(F)(F)F)c3)C4)C2)N1 [Example 198, 2-[2-[3-(trifluoromethoxy)phenyl]sulfonyl-2,6-diazaspiro[3.3]heptane-6-carbonyl]-2,5-diazaspiro[3.4]octan-6-one]	232
O=C1NC2(CO1)CN(C(=O)N1CC3(CCC(Cc4ccc(C(F)(F)F)cn4)C3)C1)C2 (centres unmarked) [Example 46, 2-[6-[[5-(trifluoromethyl)-2-pyridyl]methyl]-2-azaspiro[3.4]octane-2-carbonyl]-7-oxa-2,5-diazaspiro[3.4]octan-6-one]	0.15
N#Cc1cc(CC2CC3(C2)CN(C(=O)N2CC4(CNC(=O)N4)C2)C3)ccc1C(F)(F)F [Example 17, 5-[[2-(6-keto-2,5,7-triazaspiro[3.4]octane-2-carbonyl)-2-azaspiro[3.3]heptan-6-yl]methyl]-2-(trifluoromethyl)benzoni-trile]	3.29
